Consider one compound from patent publication US20080114038A1 (priority 2004, published 2008).

The subject of assay [1] is edema of the paw induced by carragenine. Briefly: Edema of rat paws induced by carragenine. The following applies: i.p. 30 minutes before carragenine 1%; molar dose equivalent to diclofenac; paw volume up to 4 hours. Type of assay: in vivo, male rats of the Wistar type. As for the experimental part:
For the performance of this one test, animals, such as, for example, male rats of the Wistar type were used, which weighed between 150-180 g. These rats were acquired from CEMIB/UNICAMP.
Five rats were treated with the diclofenac, five rats with the modified diclofenac and five rats with the DMSO vehicle.
After a period of approximately 30 minutes, the animals were inoculated with an intraplantary injection of approximately 0.1 mL of a solution of carragenine 1% in saline solution, at the right hind paw, while the contralateral paw received the same volume but only of the saline solution.
The quantification of the volume of the paw was performed by means of an adequate instrument, such as, for example a pletismometer. The volume of the paws was checked before the administration of the carragenine (T0) and after 30 minutes, 1, 2, 3 and 4 hours. The T0 value was subtracted from the other values arrived at.

Assay [2] addresses COX-1 (Homo sapiens, UniProt P23219). Conditions: read-out: concentration responsible for the inhibition of 50% of the production of TXA2 (IC50); human whole blood without anticoagulant, 37° C., 1 hour, serum.

pIC50: −log10 of the molar value.

Sequence of COX-1 (P23219 24-599): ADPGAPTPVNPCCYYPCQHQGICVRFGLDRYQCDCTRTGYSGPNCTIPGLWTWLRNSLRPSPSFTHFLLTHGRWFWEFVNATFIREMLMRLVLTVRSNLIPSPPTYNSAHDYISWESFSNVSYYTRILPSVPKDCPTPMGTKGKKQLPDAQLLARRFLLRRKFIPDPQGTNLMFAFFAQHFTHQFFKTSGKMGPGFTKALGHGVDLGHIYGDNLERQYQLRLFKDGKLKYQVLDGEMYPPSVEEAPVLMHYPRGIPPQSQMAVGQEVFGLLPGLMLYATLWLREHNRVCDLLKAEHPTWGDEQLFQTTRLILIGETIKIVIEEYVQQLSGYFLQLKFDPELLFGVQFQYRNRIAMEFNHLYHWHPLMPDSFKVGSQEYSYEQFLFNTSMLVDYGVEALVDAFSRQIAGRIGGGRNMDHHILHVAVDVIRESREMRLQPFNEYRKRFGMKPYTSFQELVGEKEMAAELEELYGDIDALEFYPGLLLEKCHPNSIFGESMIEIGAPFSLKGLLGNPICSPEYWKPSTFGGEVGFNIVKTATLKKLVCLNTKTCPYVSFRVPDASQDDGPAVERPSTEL

On to `O=C(Cc1ccccc1Nc1c(Cl)cccc1Cl)OCc1ccc2c(c1)no[n+]2[O-]` [modified diclofenac, [2-(2,6-dichloro-phenylamino)-phenyl]-acetic acid 1-oxy-benzo[1,2,5]oxadiazol-5-ylmethyl ester], for which, in assay [1], the “inhibition of the edema of the paw induced by carragenine (paw volume, FIG. 1)” value is given as “capable of inhibiting the edema of the paw induced by carragenine in the same way that the standard diclofenac”. The pIC50 in assay [2] is around 4.39.
